In BigSolDB 2.1:

O=c1c2ccccc2sc2ccccc12
Settings | solubility (mole fraction)
in 1,4-dioxane, 292.15 K | 0.00919
in 1,4-dioxane, 297.05 K | 0.01
in 1,4-dioxane, 302.05 K | 0.0109
in 1,4-dioxane, 305.05 K | 0.0115
in 1,4-dioxane, 307.95 K | 0.0121
in 1,4-dioxane, 311.15 K | 0.0127
in 1,4-dioxane, 313.85 K | 0.0134
in 1,4-dioxane, 316.85 K | 0.0141
in 1,4-dioxane, 319.35 K | 0.0146
in 1,4-dioxane, 322.55 K | 0.0153
in 1,4-dioxane, 326.55 K | 0.0163
in 1,4-dioxane, 331.55 K | 0.0175
in 1,4-dioxane, 335.95 K | 0.0186
in 2-butanone, 292.15 K | 0.00309
in 2-butanone, 297.05 K | 0.00398
in 2-butanone, 301.95 K | 0.00441
in 2-butanone, 306.65 K | 0.00519
in 2-butanone, 311.25 K | 0.00604
in 2-butanone, 316.15 K | 0.00696
in 2-butanone, 321.25 K | 0.00805
in 2-butanone, 326.55 K | 0.00947
in 2-butanone, 331.55 K | 0.0111
in 2-butanone, 335.95 K | 0.0124
in THF, 292.15 K | 0.00867
in THF, 297.05 K | 0.0101
in THF, 301.95 K | 0.0114
in THF, 306.65 K | 0.0129
in THF, 311.25 K | 0.0147
in THF, 316.15 K | 0.0167
in THF, 321.25 K | 0.0189
in THF, 326.55 K | 0.0213
in THF, 331.55 K | 0.024
in THF, 335.95 K | 0.0274
in acetone, 292.15 K | 0.00191
in acetone, 297.05 K | 0.00225
in acetone, 302.05 K | 0.00265
in acetone, 305.05 K | 0.00293
in acetone, 307.95 K | 0.00317
in acetone, 311.15 K | 0.00356
in acetone, 313.85 K | 0.00389
in acetone, 316.85 K | 0.00407
in acetone, 319.35 K | 0.00456
in acetone, 322.55 K | 0.00492
in acetone, 326.55 K | 0.0055
in acetonitrile, 292.15 K | 0.000466
in acetonitrile, 297.05 K | 0.000614
in acetonitrile, 302.05 K | 0.000806
in acetonitrile, 305.05 K | 0.000947
in acetonitrile, 307.95 K | 0.0011
in acetonitrile, 311.15 K | 0.00132
in acetonitrile, 313.85 K | 0.00147
in acetonitrile, 316.85 K | 0.0017
in acetonitrile, 319.35 K | 0.00192
in acetonitrile, 322.55 K | 0.00225
in acetonitrile, 326.55 K | 0.0027
in acetonitrile, 331.55 K | 0.00336
in acetonitrile, 335.95 K | 0.00411
in dichloromethane, 292.15 K | 0.00692
in dichloromethane, 297.05 K | 0.00849
in dichloromethane, 301.95 K | 0.00981
in dichloromethane, 306.65 K | 0.0114
in dichloromethane, 311.25 K | 0.0134
in ethanol, 292.15 K | 0.000194
in ethanol, 297.05 K | 0.000289
in ethanol, 302.05 K | 0.000428
in ethanol, 305.05 K | 0.000544
in ethanol, 307.95 K | 0.000657
in ethanol, 311.15 K | 0.000847
in ethanol, 313.85 K | 0.00103
in ethanol, 316.85 K | 0.00126
in ethanol, 319.35 K | 0.00153
in ethanol, 322.55 K | 0.00189
in ethanol, 326.55 K | 0.00247
in ethanol, 331.55 K | 0.00342
in ethanol, 335.95 K | 0.00452
in ethyl acetate, 292.15 K | 0.00273
in ethyl acetate, 297.05 K | 0.00319
in ethyl acetate, 302.05 K | 0.00371
in ethyl acetate, 305.05 K | 0.00405
in ethyl acetate, 307.95 K | 0.00444
in ethyl acetate, 311.15 K | 0.00485
in ethyl acetate, 313.85 K | 0.00525
in ethyl acetate, 316.85 K | 0.00565
in ethyl acetate, 319.35 K | 0.00608
in ethyl acetate, 322.55 K | 0.00655
in ethyl acetate, 326.55 K | 0.00732
in ethyl acetate, 331.55 K | 0.0083
in ethyl acetate, 335.95 K | 0.00924
in isopropanol, 292.15 K | 0.000395
in isopropanol, 297.05 K | 0.000539
in isopropanol, 302.05 K | 0.000733
in isopropanol, 305.05 K | 0.000877
in isopropanol, 307.95 K | 0.00106
in isopropanol, 311.15 K | 0.00126
in isopropanol, 313.85 K | 0.00145
in isopropanol, 316.85 K | 0.00172
in isopropanol, 319.35 K | 0.00198
in isopropanol, 322.55 K | 0.00234
in isopropanol, 326.55 K | 0.00288
in isopropanol, 331.55 K | 0.00371
in isopropanol, 335.95 K | 0.00461
in methanol, 292.15 K | 0.000163
in methanol, 297.05 K | 0.000225
in methanol, 301.95 K | 0.000284
in methanol, 306.65 K | 0.000316
in methanol, 311.25 K | 0.0004
in methanol, 316.15 K | 0.000469
in methanol, 321.25 K | 0.00062
in methanol, 326.55 K | 0.000788
in methanol, 331.55 K | 0.000921
in methanol, 335.95 K | 0.00106
in n-propanol, 292.15 K | 0.000546
in n-propanol, 297.05 K | 0.00061
in n-propanol, 301.95 K | 0.000782
in n-propanol, 306.65 K | 0.000892
in n-propanol, 311.25 K | 0.00114
in n-propanol, 316.15 K | 0.00134
in n-propanol, 321.25 K | 0.00175
in n-propanol, 326.55 K | 0.00214
in n-propanol, 331.55 K | 0.00251
in n-propanol, 335.95 K | 0.00317
in toluene, 292.15 K | 0.00373
in toluene, 297.05 K | 0.00456
in toluene, 302.05 K | 0.00554
in toluene, 305.05 K | 0.00624
in toluene, 307.95 K | 0.0069
in toluene, 311.15 K | 0.00782
in toluene, 313.85 K | 0.00858
in toluene, 316.85 K | 0.0096
in toluene, 319.35 K | 0.0103
in toluene, 322.55 K | 0.0116
in toluene, 326.55 K | 0.0134
in toluene, 331.55 K | 0.0158
in toluene, 335.95 K | 0.0181
